Here are results for 59 compounds from ChEMBL document CHEMBL2029314, “Discovery of HIV fusion inhibitors targeting gp41 using a comprehensive α-helix mimetic library” (Bioorg Med Chem Lett, 2012).

Where only a bound is given, the exact number is not on record here.

One test can be described thus: Displacement of C18-Aib-lucifer yellow from HIV1 envelope glycoprotein gp41 Fe(env2.0)3 by fluorescence assay. On the set-up: species or system Human immunodeficiency virus 1.
Conditions: not given
Compound `CSCC[C@H](N)C(=O)Nc1ccc(C(=O)N[C@@H](CCc2ccccc2)C(=O)O)cc1OCc1ccc(Cl)cc1` showed a Ki of less than 25 µM.
Same read-out and setting: under `N[C@@H](CCc1ccccc1)C(=O)Nc1ccc(C(=O)N[C@@H](CCc2ccccc2)C(=O)O)cc1OCc1ccc(Cl)cc1` stands less than 25 µM; under `N[C@@H](Cc1ccc(O)cc1)C(=O)Nc1ccc(C(=O)N[C@@H](CCc2ccccc2)C(=O)O)cc1OCc1ccc(Cl)cc1`, less than 25 µM; under `N[C@@H](Cc1c[nH]c2ccccc12)C(=O)Nc1ccc(C(=O)N[C@@H](CCc2ccccc2)C(=O)O)cc1OCc1ccc(Cl)cc1`, less than 25 µM.
Consider `N[C@@H](CC(=O)O)C(=O)Nc1ccc(C(=O)N[C@@H](Cc2c[nH]c3ccccc23)C(=O)O)cc1OCCc1c[nH]c2ccccc12`, for which the inhibition constant (Ki) is less than 10 µM.
Same read-out and setting: under `N[C@@H](CC(=O)O)C(=O)Nc1ccc(C(=O)N[C@H](CC(=O)O)Cc2c[nH]c3ccccc23)cc1OCCc1c[nH]c2ccccc12` stands 0.6 µM.
Same read-out and setting: in the case of `CSCC[C@H](N)C(=O)Nc1ccc(C(=O)N[C@@H](Cc2c[nH]c3ccccc23)C(=O)O)cc1OCCc1c[nH]c2ccccc12` it was less than 10 µM; in that of `N[C@@H](CC(=O)O)C(=O)Nc1ccc(C(=O)NCCc2c[nH]c3ccccc23)cc1OCCc1c[nH]c2ccccc12`, 18 µM.
Still for that read-out and setting: under `CC[C@H](C)[C@H](N)C(=O)Nc1ccc(C(=O)N[C@@H](CCc2ccccc2)C(=O)O)cc1OCc1ccc(Cl)cc1` stands less than 25 µM; under `N[C@@H](Cc1ccc2ccccc2c1)C(=O)Nc1ccc(C(=O)N[C@@H](Cc2c[nH]c3ccccc23)C(=O)O)cc1OCCc1c[nH]c2ccccc12`, less than 10 µM.
Take `CSCC[C@H](N)C(=O)Nc1ccc(C(=O)N[C@@H](CCc2ccccc2)C(=O)O)cc1OCc1ccc2ccccc2c1`: the Ki is less than 10 µM.
Consider `CC(C)C[C@H](NC(=O)c1ccc(NC(=O)[C@@H](N)CO)c(OCCc2c[nH]c3ccccc23)c1)C(=O)O`, for which the Ki was less than 10 µM.
`CC(C)C[C@H](NC(=O)c1ccc(NC(=O)[C@@H](N)CC(=O)O)c(OCCc2c[nH]c3ccccc23)c1)C(=O)O` displayed a Ki of less than 10 µM.
Same read-out and setting: in the case of `CC(C)C[C@H](NC(=O)c1ccc(NC(=O)[C@@H](N)Cc2ccc3ccccc3c2)c(OCCc2c[nH]c3ccccc23)c1)C(=O)O` it was less than 10 µM; in that of `CC(C)C[C@H](NC(=O)c1ccc(NC(=O)[C@@H](N)CC(N)=O)c(OCCc2c[nH]c3ccccc23)c1)C(=O)O`, less than 10 µM; in that of `CC(C)C[C@H](N)C(=O)Nc1ccc(C(=O)N[C@@H](CCc2ccccc2)C(=O)O)cc1OCc1ccc2ccccc2c1`, less than 10 µM.
Still for that read-out and setting: under `CC[C@H](C)[C@H](N)C(=O)Nc1ccc(C(=O)N[C@@H](CCc2ccccc2)C(=O)O)cc1OCc1ccc2ccccc2c1` stands less than 10 µM; under `N[C@@H](CC(=O)O)C(=O)Nc1ccc(C(=O)N[C@@H](CCc2ccccc2)C(=O)O)cc1OCc1ccc2ccccc2c1`, less than 10 µM.
`N[C@@H](Cc1ccc(O)cc1)C(=O)Nc1ccc(C(=O)N[C@@H](CCc2ccccc2)C(=O)O)cc1OCc1ccc2ccccc2c1` showed an inhibition constant Ki of less than 10 µM.
Same read-out and setting: in the case of `N[C@@H](Cc1c[nH]c2ccccc12)C(=O)Nc1ccc(C(=O)N[C@@H](CCc2ccccc2)C(=O)O)cc1OCc1ccc2ccccc2c1` it was less than 10 µM; in that of `N[C@@H](CCc1ccccc1)C(=O)Nc1ccc(C(=O)N[C@@H](CCc2ccccc2)C(=O)O)cc1OCc1ccc2ccccc2c1`, less than 10 µM; in that of `C[C@H](N)C(=O)Nc1ccc(C(=O)N[C@@H](Cc2c[nH]c3ccccc23)C(=O)O)cc1OCCc1c[nH]c2ccccc12`, less than 10 µM.
On the same count and under the same terms, in the case of `CC[C@H](N)C(=O)Nc1ccc(C(=O)N[C@@H](Cc2c[nH]c3ccccc23)C(=O)O)cc1OCCc1c[nH]c2ccccc12` it was less than 10 µM; in that of `CC(C)[C@H](N)C(=O)Nc1ccc(C(=O)N[C@@H](Cc2c[nH]c3ccccc23)C(=O)O)cc1OCCc1c[nH]c2ccccc12`, less than 10 µM; in that of `CC(C)C[C@H](N)C(=O)Nc1ccc(C(=O)N[C@@H](Cc2c[nH]c3ccccc23)C(=O)O)cc1OCCc1c[nH]c2ccccc12`, less than 10 µM.
Still for that read-out and setting: under `CC[C@H](C)[C@H](N)C(=O)Nc1ccc(C(=O)N[C@@H](Cc2c[nH]c3ccccc23)C(=O)O)cc1OCCc1c[nH]c2ccccc12` stands less than 10 µM; under `N[C@@H](CO)C(=O)Nc1ccc(C(=O)N[C@@H](Cc2c[nH]c3ccccc23)C(=O)O)cc1OCCc1c[nH]c2ccccc12`, less than 10 µM; under `C[C@@H](O)[C@H](N)C(=O)Nc1ccc(C(=O)N[C@@H](Cc2c[nH]c3ccccc23)C(=O)O)cc1OCCc1c[nH]c2ccccc12`, less than 10 µM.
`N[C@@H](Cc1ccccc1)C(=O)Nc1ccc(C(=O)N[C@@H](Cc2c[nH]c3ccccc23)C(=O)O)cc1OCCc1c[nH]c2ccccc12` registered a Ki of less than 10 µM.
Same read-out and setting: in the case of `N[C@@H](Cc1ccc(O)cc1)C(=O)Nc1ccc(C(=O)N[C@@H](Cc2c[nH]c3ccccc23)C(=O)O)cc1OCCc1c[nH]c2ccccc12` it was less than 10 µM; in that of `COc1ccc(C[C@H](N)C(=O)Nc2ccc(C(=O)N[C@@H](Cc3c[nH]c4ccccc34)C(=O)O)cc2OCCc2c[nH]c3ccccc23)cc1`, 0.7 µM.
`N[C@@H](Cc1c[nH]c2ccccc12)C(=O)Nc1ccc(C(=O)N[C@@H](Cc2c[nH]c3ccccc23)C(=O)O)cc1OCCc1c[nH]c2ccccc12` displayed a Ki of less than 10 µM.
The same measure, in the same setting: in the case of `NC(=O)C[C@H](N)C(=O)Nc1ccc(C(=O)N[C@@H](Cc2c[nH]c3ccccc23)C(=O)O)cc1OCCc1c[nH]c2ccccc12` it was 0.8 µM; in that of `COC(=O)[C@H](Cc1c[nH]c2ccccc12)NC(=O)c1ccc(NC(=O)[C@@H](N)CC(=O)O)c(OCCc2c[nH]c3ccccc23)c1`, 21 µM.
On the same count and under the same terms, under `O=C(O)CCC(=O)Nc1ccc(C(=O)N[C@@H](Cc2c[nH]c3ccccc23)C(=O)O)cc1OCCc1c[nH]c2ccccc12` stands 0.6 µM.
On the same count and under the same terms, in the case of `COc1ccc(C[C@H](N)C(=O)Nc2ccc(C(=O)N[C@H](CC(=O)O)Cc3c[nH]c4ccccc34)cc2OCCc2c[nH]c3ccccc23)cc1` it was 50 µM; in that of `COc1ccc(C[C@H](N)C(=O)Nc2ccc(C(=O)N[C@H](CCC(=O)O)Cc3c[nH]c4ccccc34)cc2OCCc2c[nH]c3ccccc23)cc1`, 100 µM.

The nature of the next test: Inhibition of HIV1 envelope glycoprotein 41-mediated membrane fusion between virus-transfected human HL2/3 cells and human TZM-bl cells after 6 hrs by luciferase reporter assay. It is filed as cell-based. The note with it: Human immunodeficiency virus 1, TZM-bl.
In turn, `CC(C)C[C@H](NC(=O)c1ccc(NC(=O)[C@@H](N)Cc2c[nH]c3ccccc23)c(OCCc2c[nH]c3ccccc23)c1)C(=O)O` came in with an IC50 of 5 µM.
On the same count and under the same terms, in the case of `COc1ccc(C[C@H](N)C(=O)Nc2ccc(C(=O)N[C@@H](Cc3c[nH]c4ccccc34)C(=O)O)cc2OCCc2c[nH]c3ccccc23)cc1` it was 8 µM.
On the same count and under the same terms, under `NC(=O)C[C@H](N)C(=O)Nc1ccc(C(=O)N[C@@H](Cc2c[nH]c3ccccc23)C(=O)O)cc1OCCc1c[nH]c2ccccc12` stands 6 µM.
On the same count and under the same terms, in the case of `CC(C)[C@H](NC(=O)c1ccc(N)c(OCc2ccc(O)cc2)c1)C(=O)O` it was less than 30 µM; in that of `CC[C@H](NC(=O)c1ccc(N)c(OCc2ccc(O)cc2)c1)C(=O)O`, less than 30 µM.
`CSCC[C@H](NC(=O)c1ccc(N)c(OCc2ccc(O)cc2)c1)C(=O)O` displayed an IC50 of less than 30 µM.
The same measure, in the same setting: under `Nc1ccc(C(=O)N[C@@H](CO)C(=O)O)cc1OCc1ccc(O)cc1` stands less than 30 µM.
Still for that read-out and setting: under `Nc1ccc(C(=O)N[C@@H](Cc2ccc(O)cc2)C(=O)O)cc1OCc1ccc(O)cc1` stands less than 30 µM; under `NC(=O)C[C@H](NC(=O)c1ccc(N)c(OCc2ccc(O)cc2)c1)C(=O)O`, less than 30 µM; under `Nc1ccc(C(=O)N[C@@H](Cc2ccc3ccccc3c2)C(=O)O)cc1OCc1ccc(O)cc1`, less than 30 µM.
The compound `CC[C@H](C)[C@H](NC(=O)c1ccc(N)c(OCCc2c[nH]c3ccccc23)c1)C(=O)O` returned an IC50 of less than 30 µM.
`CC(C)C[C@H](NC(=O)c1ccc(N)c(OCCc2c[nH]c3ccccc23)c1)C(=O)O` gave an IC50 of less than 30 µM.
On the same count and under the same terms, in the case of `Nc1ccc(C(=O)N[C@@H](CCc2ccccc2)C(=O)O)cc1OCCc1c[nH]c2ccccc12` it was less than 30 µM; in that of `Nc1ccc(C(=O)N[C@@H](Cc2ccc(Cl)cc2)C(=O)O)cc1OCCc1c[nH]c2ccccc12`, less than 30 µM.
`Nc1ccc(C(=O)N[C@@H](Cc2c[nH]c3ccccc23)C(=O)O)cc1OCCc1c[nH]c2ccccc12` had an IC50 of less than 30 µM.
For `CC[C@H](C)[C@H](NC(=O)c1ccc(N)c(OCc2ccc(Cl)cc2)c1)C(=O)O`, the IC50 was less than 30 µM.
Same read-out and setting: in the case of `Nc1ccc(C(=O)N[C@@H](Cc2ccc3ccccc3c2)C(=O)O)cc1OCc1ccc(Cl)cc1` it was less than 30 µM.
The same measure, in the same setting: in the case of `CC[C@H](C)[C@H](NC(=O)c1ccc(N)c(OCc2ccc3ccccc3c2)c1)C(=O)O` it was less than 30 µM.
On the same count and under the same terms, under `CC(C)C[C@H](NC(=O)c1ccc(N)c(OCc2ccc3ccccc3c2)c1)C(=O)O` stands less than 30 µM; under `Nc1ccc(C(=O)N[C@@H](CCc2ccccc2)C(=O)O)cc1OCc1ccc2ccccc2c1`, less than 30 µM; under `Nc1ccc(C(=O)N[C@@H](CC(=O)O)C(=O)O)cc1OCc1ccc2ccccc2c1`, less than 30 µM.
The compound `Nc1ccc(C(=O)N[C@@H](Cc2ccccc2)C(=O)O)cc1OCc1ccc2ccccc2c1` displayed an IC50 of less than 30 µM.
Still for that read-out and setting: in the case of `Nc1ccc(C(=O)N[C@@H](Cc2ccc(O)cc2)C(=O)O)cc1OCc1ccc2ccccc2c1` it was less than 30 µM.
The same measure, in the same setting: under `COc1ccc(C[C@H](NC(=O)c2ccc(N)c(OCc3ccc4ccccc4c3)c2)C(=O)O)cc1` stands less than 30 µM.
